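The compound was tested at five concentrations on cells cultured in 96-well plates, with a 48-hour exposure period. Definition used: TGI = concentration required for complete inhibition of growth.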
Legend:
Assay in all cases: DTP human tumour cell line panel, 48 h
OVCAR-4 ovarian = test system: OVCAR-4 ovarian
NCI-H522 lung = test system: NCI-H522 lung
LOX IMVI melanoma = test system: LOX IMVI melanoma
MDA-N = test system: MDA-N
SK-OV-3 ovarian = test system: SK-OV-3 ovarian
UACC-62 melanoma = test system: UACC-62 melanoma
MALME-3M melanoma = test system: MALME-3M melanoma
UO-31 renal = test system: UO-31 renal
SF-268 CNS = test system: SF-268 CNS
CAKI-1 renal = test system: CAKI-1 renal
K-562 leukemia = test system: K-562 leukemia
HOP-62 NSCLC = test system: HOP-62 NSCLC
IGROV1 ovarian = test system: IGROV1 ovarian
CCRF-CEM leukemia = test system: CCRF-CEM leukemia
M14 melanoma = test system: M14 melanoma
PC-3 prostate = test system: PC-3 prostate
SNB-75 CNS = test system: SNB-75 CNS
RXF 393 renal = test system: RXF 393 renal
NCI-H460 lung = test system: NCI-H460 lung
BT-549 breast = test system: BT-549 breast
HCT-116 colon = test system: HCT-116 colon
SN12C renal = test system: SN12C renal
TK-10 renal = test system: TK-10 renal
MOLT-4 leukemia = test system: MOLT-4 leukemia
NCI/ADR-RES ovarian = test system: NCI/ADR-RES ovarian
MDA-MB-435 = test system: MDA-MB-435
KM12 colon = test system: KM12 colon
A549 NSCLC = test system: A549 NSCLC
SW-620 colon = test system: SW-620 colon
U251 CNS = test system: U251 CNS
SK-MEL-5 melanoma = test system: SK-MEL-5 melanoma
A498 renal = test system: A498 renal
COLO 205 colon = test system: COLO 205 colon
MCF7 breast = test system: MCF7 breast
OVCAR-8 ovarian = test system: OVCAR-8 ovarian
SK-MEL-2 melanoma = test system: SK-MEL-2 melanoma
OVCAR-5 ovarian = test system: OVCAR-5 ovarian
786-0 renal = test system: 786-0 renal
HS 578T breast = test system: HS 578T breast
SF-295 CNS = test system: SF-295 CNS
SK-MEL-28 melanoma = test system: SK-MEL-28 melanoma
ACHN renal = test system: ACHN renal
HCC-2998 colon = test system: HCC-2998 colon
NCI-H23 lung = test system: NCI-H23 lung
T-47D breast = test system: T-47D breast
UACC-257 melanoma = test system: UACC-257 melanoma
HT29 colon = test system: HT29 colon
DU-145 prostate = test system: DU-145 prostate
RPMI-8226 leukemia = test system: RPMI-8226 leukemia
HL-60(TB) leukemia = test system: HL-60(TB) leukemia
HCT-15 colon = test system: HCT-15 colon
MDA-MB-231 breast = test system: MDA-MB-231 breast
HOP-92 NSCLC = test system: HOP-92 NSCLC
OVCAR-3 ovarian = test system: OVCAR-3 ovarian
EKVX NSCLC = test system: EKVX NSCLC
SNB-19 CNS = test system: SNB-19 CNS
NCI-H226 lung = test system: NCI-H226 lung

Cc1cc2nc(N3C(=O)/C(=C/c4ccc(Oc5ccccc5)cc4)N=C3c3ccccc3)sc2cc1C
TGI (OVCAR-4 ovarian): > 100 µM
TGI (NCI-H522 lung): 80.5 µM
TGI (LOX IMVI melanoma): > 100 µM
TGI (MDA-N): > 100 µM
TGI (SK-OV-3 ovarian): > 100 µM
TGI (UACC-62 melanoma): > 100 µM
TGI (MALME-3M melanoma): > 100 µM
TGI (UO-31 renal): > 100 µM
TGI (SF-268 CNS): > 100 µM
TGI (CAKI-1 renal): > 100 µM
TGI (K-562 leukemia): > 100 µM
TGI (HOP-62 NSCLC): > 100 µM
TGI (IGROV1 ovarian): > 100 µM
TGI (CCRF-CEM leukemia): > 100 µM
TGI (M14 melanoma): > 100 µM
TGI (PC-3 prostate): > 100 µM
TGI (SNB-75 CNS): > 100 µM
TGI (RXF 393 renal): > 100 µM
TGI (NCI-H460 lung): > 100 µM
TGI (BT-549 breast): > 100 µM
TGI (HCT-116 colon): > 100 µM
TGI (SN12C renal): > 100 µM
TGI (TK-10 renal): > 100 µM
TGI (MOLT-4 leukemia): > 100 µM
TGI (NCI/ADR-RES ovarian): 91.6 µM
TGI (MDA-MB-435): 83.4 µM
TGI (KM12 colon): > 100 µM
TGI (A549 NSCLC): > 100 µM
TGI (SW-620 colon): > 100 µM
TGI (U251 CNS): > 100 µM
TGI (SK-MEL-5 melanoma): > 100 µM
TGI (A498 renal): > 100 µM
TGI (COLO 205 colon): 47.6 µM
TGI (MCF7 breast): > 100 µM
TGI (OVCAR-8 ovarian): > 100 µM
TGI (SK-MEL-2 melanoma): 71.6 µM
TGI (OVCAR-5 ovarian): > 100 µM
TGI (786-0 renal): > 100 µM
TGI (HS 578T breast): > 100 µM
TGI (SF-295 CNS): > 100 µM
TGI (SK-MEL-28 melanoma): > 100 µM
TGI (ACHN renal): > 100 µM
TGI (HCC-2998 colon): > 100 µM
TGI (NCI-H23 lung): > 100 µM
TGI (T-47D breast): > 100 µM
TGI (UACC-257 melanoma): > 100 µM
TGI (HT29 colon): > 100 µM
TGI (DU-145 prostate): > 100 µM
TGI (RPMI-8226 leukemia): 86.8 µM
TGI (HL-60(TB) leukemia): 63.8 µM
TGI (HCT-15 colon): > 100 µM
TGI (MDA-MB-231 breast): > 100 µM
TGI (HOP-92 NSCLC): > 100 µM
TGI (OVCAR-3 ovarian): > 100 µM
TGI (EKVX NSCLC): > 100 µM
TGI (SNB-19 CNS): > 100 µM

Clc1ccc2c(NCCNC3CCCCC3)ccnc2c1
TGI (OVCAR-4 ovarian): 46.5 µM
TGI (NCI-H522 lung): 7.46 µM
TGI (LOX IMVI melanoma): 8.53 µM
TGI (MDA-N): 5.42 µM
TGI (SK-OV-3 ovarian): 37.8 µM
TGI (UACC-62 melanoma): 15.8 µM
TGI (MALME-3M melanoma): 3.64 µM
TGI (UO-31 renal): 11.2 µM
TGI (SF-268 CNS): 22.8 µM
TGI (CAKI-1 renal): 24.3 µM
TGI (K-562 leukemia): 6.13 µM
TGI (HOP-62 NSCLC): 27.4 µM
TGI (IGROV1 ovarian): 27.8 µM
TGI (CCRF-CEM leukemia): 9.77 µM
TGI (M14 melanoma): 3.41 µM
TGI (PC-3 prostate): 33.9 µM
TGI (SNB-75 CNS): 23.4 µM
TGI (RXF 393 renal): 27.1 µM
TGI (BT-549 breast): 23.3 µM
TGI (HCT-116 colon): 21.1 µM
TGI (SN12C renal): 33.8 µM
TGI (TK-10 renal): 7.15 µM
TGI (MOLT-4 leukemia): 18.6 µM
TGI (NCI/ADR-RES ovarian): 33.7 µM
TGI (MDA-MB-435): 9.92 µM
TGI (KM12 colon): 31 µM
TGI (A549 NSCLC): 31.2 µM
TGI (SW-620 colon): 29.7 µM
TGI (U251 CNS): 17.7 µM
TGI (SK-MEL-5 melanoma): 3.16 µM
TGI (A498 renal): 5.85 µM
TGI (COLO 205 colon): 2.79 µM
TGI (MCF7 breast): 15.9 µM
TGI (OVCAR-8 ovarian): 31.9 µM
TGI (SK-MEL-2 melanoma): 11 µM
TGI (OVCAR-5 ovarian): 30.5 µM
TGI (786-0 renal): 20.9 µM
TGI (HS 578T breast): 8.15 µM
TGI (SF-295 CNS): 10.3 µM
TGI (SK-MEL-28 melanoma): 3.62 µM
TGI (ACHN renal): 25.3 µM
TGI (NCI-H23 lung): 32.2 µM
TGI (T-47D breast): 64.6 µM
TGI (HT29 colon): 14.8 µM
TGI (NCI-H226 lung): 24.8 µM
TGI (DU-145 prostate): 36.7 µM
TGI (RPMI-8226 leukemia): 17 µM
TGI (HL-60(TB) leukemia): 6.63 µM
TGI (HCT-15 colon): 20.4 µM
TGI (MDA-MB-231 breast): 23.8 µM
TGI (HOP-92 NSCLC): 22.5 µM
TGI (OVCAR-3 ovarian): 37.5 µM
TGI (EKVX NSCLC): 15.7 µM
TGI (SNB-19 CNS): 35.5 µM

Source: PubChem BioAssay (NCI)
